pEC50, pIC50: −log10 of the molar value. Values after ≈ are worked out from the molar mass of the structure shown.
Columns and labels:
[1] = test system: Plasmodium berghei; test: Antimalarial activity against Plasmodium berghei infected in mouse assessed reduction in parasitemia measured after 4 days; assay type: functional; parameters: scale not given: the % may be the effect or the level left; details: time 4 day
[2] = test system: Plasmodium berghei; test: Antimalarial activity against Plasmodium berghei infected in mouse assessed increase in survival time; assay type: functional
[3] = test system: Plasmodium berghei; test: Antimalarial activity against Plasmodium berghei infected in mouse assessed cured animal rate measured after 25 days; assay type: functional; details: time 25 day
[4] = test system: Plasmodium falciparum; test: Antimalarial activity against Plasmodium falciparum IV-V gametocytes; assay type: functional, organism-based
[5] = test system: Plasmodium falciparum; test: Antimalarial activity against chloroquine resistant Plasmodium falciparum; assay type: functional, organism-based
[6] = test system: Plasmodium vinckei; test: Antimalarial activity against Plasmodium vinckei infected in ip dosed mouse; assay type: functional
[7] = test system: Plasmodium vinckei; test: Antimalarial activity against Plasmodium vinckei infected in po dosed mouse; assay type: functional
[8] = test system: Plasmodium berghei; test: Antimalarial activity against Plasmodium berghei ANKA infected in mouse at 30 mg/kg, po; assay type: functional
[9] = test system: Plasmodium berghei; test: Antimalarial activity against Plasmodium berghei ANKA infected in po dosed mouse; assay type: functional; details: Plasmodium berghei, ANKA
[10] = test system: Plasmodium falciparum; test: Antimalarial activity against Plasmodium falciparum K1; assay type: functional, organism-based
[11] = test system: Plasmodium falciparum; test: Antimalarial activity against Plasmodium falciparum NF54; assay type: functional, organism-based
[12] = test system: Plasmodium falciparum; test: Antimalarial activity against Plasmodium falciparum W2; assay type: functional, organism-based
[13] = Selectivity index, ratio of IC50 for HEK293 cells to IC50 for Plasmodium falciparum NF54; assay type: toxicity; details: human, read-out: Ratio IC50
[14] = test system: Plasmodium falciparum; test: Antimalarial activity against Plasmodium falciparum INDO; assay type: functional, organism-based
[15] = test system: Plasmodium falciparum; test: Potency index, ratio of chloroquine IC50 to test compound IC50 for Plasmodium falciparum INDO; assay type: functional
[16] = Cytotoxicity against HEK293 cells; assay type: toxicity, cell-based; details: human
[17] = test system: Plasmodium falciparum; test: Potency index, ratio of artesunate IC50 to test compound IC50 for chloroquine resistant Plasmodium falciparum; assay type: functional
[18] = test system: Plasmodium falciparum; test: Antimalarial activity against Plasmodium falciparum; assay type: functional, organism-based
[19] = test system: Plasmodium falciparum; test: Antimalarial activity against chloroquine sensitive Plasmodium falciparum FCR-3; assay type: functional, organism-based
[20] = test system: Plasmodium berghei; test: Antimalarial activity against Plasmodium berghei N strain infected in mouse at 15 mg/kg, ip administered once daily for 4 days; assay type: functional; details: time 4 day
[21] = test system: Plasmodium berghei; test: Antimalarial activity against Plasmodium berghei N strain infected in mouse at 30 mg/kg, ip administered once daily for 4 days; assay type: functional; details: time 4 day
[22] = Cytotoxicity against human MRC5 cells; assay type: toxicity, cell-based
[23] = test system: Plasmodium berghei; test: Antimalarial activity against Plasmodium berghei infected in mouse at less than 10 mg/kg, po; assay type: functional
[24] = test system: Plasmodium falciparum; test: Antimalarial activity against Plasmodium falciparum 3D7; assay type: functional, organism-based
[25] = test system: Plasmodium falciparum; test: Antimalarial activity against chloroquine-sensitive Plasmodium falciparum NF54 infected in po dosed mouse; assay type: functional
[26] = test system: Plasmodium falciparum; test: Antimalarial activity against chloroquine-sensitive Plasmodium falciparum NF54 infected in iv dosed mouse; assay type: functional
[27] = test system: Plasmodium berghei; test: Antimalarial activity against Plasmodium berghei K173 infected in mouse; assay type: functional; details: Plasmodium berghei, K173
[28] = test system: Plasmodium falciparum; test: Antimalarial activity against chloroquine-sensitive Plasmodium falciparum NF54; assay type: functional, organism-based
[29] = test system: Plasmodium yoelii; test: Antimalarial activity against Plasmodium yoelii infected in mouse; assay type: functional
[30] = test system: Plasmodium falciparum; test: Potency index, ratio of artesunate IC50 to test compound IC50 for Plasmodium falciparum NF54; assay type: functional
[31] = test system: Plasmodium falciparum; test: Antimalarial activity against Plasmodium falciparum Dd2; assay type: functional, organism-based
[32] = test system: Plasmodium falciparum; test: Antimalarial activity against Plasmodium falciparum IPC5202; assay type: functional, organism-based
[33] = test system: Plasmodium falciparum; test: Antimalarial activity against Plasmodium falciparum IPC4912; assay type: functional, organism-based

CCN(CC)Cc1cc(C2CCC3(CC2)OOC2(OO3)C3CC4CC(C3)CC2C4)ccc1O (stereo unspecified)
Activity [1]: >99.7%
Time [2]: 27 days
Activity [3]: 66%

CCCCNC(=O)CCC(C)[C@H]1CCC2C3C(C[C@H](OC(C)=O)[C@@]21C)[C@@]1(C)CCC2(C[C@H]1C[C@H]3OC(C)=O)OOCOO2 (stereo partly specified)
pIC50 [4]: 5.94

COCCC[C@]12O[C@H]([C@@H]3OO[C@H]1O3)[C@H](C)C(=O)[C@@H]2C
IC50 [5]: 2 microg/cm3

CC(CNCCO[C@H]1O[C@@H]2O[C@]3(C)CC[C@H]4[C@H](C)CC[C@@H]([C@H]1C)[C@@]24OO3)Nc1ccnc2cc(Cl)ccc12 (stereo partly specified)
ED50 [6]: 1.1 mg/kg
ED50 [7]: 12 mg/kg

O=C(CC1CCC2(CC1)OOC1(OO2)C2CC3CC(C2)CC1C3)N1CCOCC1 (stereo unspecified)
Activity [8]: 100%
ED90 [9]: 3.88 mg/kg

Oc1ccc(C2CCC3(CC2)OOC2(OO3)C3CC4CC(C3)CC2C4)cc1CN1CCCC1 (stereo unspecified)
pIC50 [10]: 8.32
pIC50 [11]: 8.32
Activity [1]: >99.7%
Time [2]: 25 days

CC(C)CCC[C@H](C)C1CC[C@H]2[C@@H]3CC=C4C[C@@H](OC(=O)CCCCCN5CCN([C@H]6O[C@@H]7O[C@]8(C)CC[C@H]9[C@H](C)CC[C@@H]([C@H]6C)[C@@]79OO8)CC5)CC[C@]4(C)[C@H]3CC[C@]12C (stereo partly specified)
pIC50 [12]: 7.15
pIC50 [10]: 7.28
pIC50 [11]: 7.11
selectivity ratio [13]: 1820

C=C(c1ccc(-c2cccc3ccccc23)cc1)C1COC2(CCCC2)OO1 (stereo unspecified)
pIC50 [14]: 7.23
Ratio IC50 [15]: >9
CC50 [16]: 3.3 µM

C[C@H]1[C@H](CCCO)O[C@@H]2O[C@]3(C)CC[C@H]4[C@H](C)CC[C@@H]1[C@@]24OO3
Ratio IC50 [17]: 5
IC50 [18]: 0.23 ng/mL (≈ 0.705 nM)

C[C@H]1C(=O)O[C@@H]2O[C@]3(C)CC[C@H]4N(Cc5ccccc5)CC[C@@H]1[C@@]24OO3
pIC50 [10]: 7.07
pIC50 [19]: 7.24
Activity [20]: 69.1%
Activity [21]: 95.6%
pIC50 [22]: 3.79

C[C@@H]1CC[C@H]2C(CN3CCN(CCO)CC3)=C(C(F)(F)F)O[C@@H]3O[C@]4(C)CC[C@@H]1[C@]32OO4
Activity [23]: 100%

C[C@H]1[C@@H](OCCNCCNc2ccnc3cc(Cl)ccc23)O[C@@H]2O[C@]3(C)CC[C@H]4[C@H](C)CC[C@@H]1[C@@]24OO3
pIC50 [24]: 7.69
ED50 [6]: 1.4 mg/kg
ED50 [7]: 16 mg/kg

C[C@H]1[C@@H](OCCNCCCNc2ccnc3cc(Cl)ccc23)O[C@@H]2O[C@]3(C)CC[C@H]4[C@H](C)CC[C@@H]1[C@@]24OO3
pIC50 [24]: 8.28
ED50 [6]: < 0.8 mg/kg
ED50 [7]: 13 mg/kg

C[C@H]1[C@H](OC(=O)CCC(=O)O)O[C@@H]2O[C@@]3(C)CC[C@H]4[C@H](C)CC[C@@H]1[C@@]24OO3 [ARTESUNATE]
ED50 [25]: 5.5 mg/kg
ED50 [26]: 5.5 mg/kg
pIC50 [12]: 8.70
IC50 [10]: 1.2 ng/mL
IC50 [11]: 1.2 ng/mL
ED50 [27]: 6.33 mg/kg/day
pIC50 [28]: 7.73
pEC50 ([24]; read-out: EC50): 8.05
ED50 [29]: 5 mg/kg
Activity [21]: 97.7%

C[C@H]1[C@H](OC(=O)c2cccc3c2OCO3)O[C@@H]2O[C@]3(C)CC[C@H]4[C@H](C)CC[C@@H]1[C@@]24OO3
pIC50 [28]: 8.09
Ratio IC50 [30]: 2.3

C1C2CC3CC1CC(C2)[C@]31OO[C@@]2(CCC(Nc3nn[nH]n3)CC2)O1 (stereo partly specified)
pIC50 [24]: 8.55
pIC50 [31]: 8.60
pIC50 [32]: 8.21
pIC50 [33]: 8.17

CC(=O)OCCC[C@]12O[C@H]([C@@H]3OO[C@H]1O3)[C@H](C)C(=O)[C@@H]2C
IC50 [5]: 3 microg/cm3
